Reference: PubChem BioAssay AID248 (DTP/NCI, 2004)
Several values for one entry are separate records, joined by “and”; a condition that tells them apart may be missing. Equal entries are not always repeated. Toxic doses and inconclusive results are not listed. Rule as the data show it: active = T/C of 150% or more; inactive = T/C below 125%.

Tested on: L1210 leukemia ip in BDF1 mice, survival T/C
Experiment: NCI In Vivo Anticancer Drug Screen. Data for tumor model L1210 Leukemia (intraperitoneal) in B6D2F1 (BDF1) mice
Conditions: endpoint: mean survival time, higher = longer survival
Procedure, shortened: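 Mice bearing the transplanted tumor received compound or vehicle. Survival of the treated group was divided by that of the vehicle-treated control group to give the ratio.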

[1] = dose: 50.0 mg/kg/injection, schedule: Q01DX001 (ip), vehicle: saline
[2] = dose: 100.0 mg/kg/injection, schedule: Q01DX001 (ip), vehicle: saline
[3] = dose: 200.0 mg/kg/injection, schedule: Q01DX001 (ip), vehicle: saline
[4] = dose: 400.0 mg/kg/injection, schedule: Q01DX001 (ip), vehicle: saline
[5] = dose: 100.0 mg/kg/injection, schedule: Q01DX009 (ip), vehicle: Klucel (hydroxypropylcellulose) (HPC)
[6] = dose: 200.0 mg/kg/injection, schedule: Q01DX009 (ip), vehicle: Klucel (hydroxypropylcellulose) (HPC)
[7] = dose: 400.0 mg/kg/injection, schedule: Q01DX009 (ip), vehicle: Klucel (hydroxypropylcellulose) (HPC)
[8] = dose: 50.0 mg/kg/injection, schedule: Q01DX009 (ip), vehicle: Klucel (hydroxypropylcellulose) (HPC)
[9] = dose: 100.0 mg/kg/injection, schedule: Q04DX003 (ip), vehicle: Klucel (hydroxypropylcellulose) (HPC)
[10] = dose: 200.0 mg/kg/injection, schedule: Q04DX003 (ip), vehicle: Klucel (hydroxypropylcellulose) (HPC)
[11] = dose: 400.0 mg/kg/injection, schedule: Q04DX003 (ip), vehicle: Klucel (hydroxypropylcellulose) (HPC)
[12] = dose: 100.0 mg/kg/injection, schedule: Q01DX001 (ip), vehicle: carboxymethylcellulose (CMC)

Measured: T/C

Nc1c(Cl)ncnc1Nc1cccc(C(=O)O)c1
inactive: [1] 98 % of control | [2] 108 % of control | [3] 102 % of control | [4] 93 % of control

CCOC(=O)CNC(N)=O
inactive: dose: 100.0 mg/kg/injection, schedule: Q01DX009 (ip), vehicle: saline 96 % of control | dose: 200.0 mg/kg/injection, schedule: Q01DX009 (ip), vehicle: saline 107 % of control | dose: 400.0 mg/kg/injection, schedule: Q01DX009 (ip), vehicle: saline 96 % of control

CCOC(=O)CCNC(COCc1ccccc1)C(=O)OCC (stereo unspecified)
inactive: [2] 98 % of control | [3] 95 % of control | [4] 106 % of control

CCCCCCCCC1SC1CCCCCCCC(=O)O (stereo unspecified)
inactive: dose: 100.0 mg/kg/injection, schedule: Q04DX002 (ip), vehicle: Klucel (hydroxypropylcellulose) (HPC) 103 % of control | dose: 200.0 mg/kg/injection, schedule: Q04DX002 (ip), vehicle: Klucel (hydroxypropylcellulose) (HPC) 100 % of control | dose: 400.0 mg/kg/injection, schedule: Q04DX002 (ip), vehicle: Klucel (hydroxypropylcellulose) (HPC) 95 % of control

NCCOS(=O)(=O)O
inactive: [5] 105 % of control | dose: 100.0 mg/kg/injection, schedule: Q01DX009 (ip), vehicle: saline with Tween-80 92 % of control | [6] 101 % of control | dose: 200.0 mg/kg/injection, schedule: Q01DX009 (ip), vehicle: saline with Tween-80 108 % of control | [7] 100 % of control | dose: 400.0 mg/kg/injection, schedule: Q01DX009 (ip), vehicle: saline with Tween-80 99 % of control

CCOC(=O)c1cnc(=O)n(Cc2ccccc2)c1N
inactive: dose: 100.0 mg/kg/injection, schedule: Q04DX002 (ip), vehicle: other 98 % of control | dose: 200.0 mg/kg/injection, schedule: Q04DX002 (ip), vehicle: other 95 % of control | dose: 400.0 mg/kg/injection, schedule: Q04DX002 (ip), vehicle: other 98 % of control

Fc1nc(F)nc(F)n1
inactive: dose: 12.0 mg/kg/injection, schedule: Q01DX009 (ip), vehicle: Klucel (hydroxypropylcellulose) (HPC) 89 % of control | dose: 25.0 mg/kg/injection, schedule: Q01DX009 (ip), vehicle: Klucel (hydroxypropylcellulose) (HPC) 94 % of control | [8] 112 % of control | dose: 100.0 mg/kg/injection, schedule: Q04DX003 (ip), vehicle: saline 90 % of control | dose: 200.0 mg/kg/injection, schedule: Q04DX003 (ip), vehicle: saline 100 % of control | dose: 400.0 mg/kg/injection, schedule: Q04DX003 (ip), vehicle: saline 102 % of control

CCN(CC)Cc1ccc(C2=NCCO2)cc1
inactive: [1] 91 % of control | [2] 94 % of control | [3] 98 % of control

O=[N+]([O-])c1ccccc1S(=O)(=O)N1CCN(S(=O)(=O)c2ccccc2[N+](=O)[O-])C1
inactive: [5] 90 % of control | [9] 96 % of control | [6] 93 % of control | [10] 96 % of control | [7] 93 % of control | [11] 100 % of control

CC(C)(CO)NCC1CCCC(CNC(C)(C)CO)C1 (stereo unspecified)
inactive: dose: 50.0 mg/kg/injection, schedule: Q01DX001 (ip), vehicle: carboxymethylcellulose (CMC) 92 % of control | [12] 101 % of control

COc1ccc2c(c1)CC1(CC2)NCC(=O)NC1=O (stereo unspecified)
inactive: [12] 97 % of control | dose: 200.0 mg/kg/injection, schedule: Q01DX001 (ip), vehicle: carboxymethylcellulose (CMC) 97 % of control | dose: 400.0 mg/kg/injection, schedule: Q01DX001 (ip), vehicle: carboxymethylcellulose (CMC) 115 % of control

CCCCNC(=O)c1cccc2c1-c1ccccc1C2=O
inactive: dose: 100.0 mg/kg/injection, schedule: Q01DX001 (ip), vehicle: other 88 % of control | dose: 200.0 mg/kg/injection, schedule: Q01DX001 (ip), vehicle: other 88 % of control | dose: 400.0 mg/kg/injection, schedule: Q01DX001 (ip), vehicle: other 96 % of control

BrC1C(Br)C(Br)C2OC2C1Br (stereo unspecified)
inactive: [5] 96 % of control | [6] 102 % of control | [7] 98 % of control

O=[N+]([O-])c1ccc2c(c1)c(-c1cccc3ccccc13)nc1ccccc12
inactive: dose: 100.0 mg/kg/injection, schedule: Q04DX003 (ip), vehicle: saline with Tween-80 95 % of control | dose: 200.0 mg/kg/injection, schedule: Q04DX003 (ip), vehicle: saline with Tween-80 93 % of control | dose: 400.0 mg/kg/injection, schedule: Q04DX003 (ip), vehicle: saline with Tween-80 91 % of control

CCS(=O)(=O)N1CCC(C)CC1
inactive: dose: 100.0 mg/kg/injection, schedule: Q04DX002 (ip), vehicle: saline with Tween-80 96 % of control | dose: 200.0 mg/kg/injection, schedule: Q04DX002 (ip), vehicle: saline with Tween-80 101 % of control | dose: 400.0 mg/kg/injection, schedule: Q04DX002 (ip), vehicle: saline with Tween-80 103 % of control

C=C(C)c1cc2c(cc1O)OCC2C (stereo unspecified)
inactive: [8] 101 % of control | [5] 92 % of control and 96 % of control | [9] 107 % of control | [6] 86 % of control and 89 % of control | [10] 94 % of control | [7] 96 % of control | [11] 94 % of control

CCC1CC2c3cc(OC)c(OC)cc3CCN2CC1(O)Cc1ccncc1 (stereo unspecified)
inactive: dose: 100.0 mg/kg/injection, schedule: Q04DX003 (ip), vehicle: carboxymethylcellulose (CMC) 100 % of control | dose: 200.0 mg/kg/injection, schedule: Q04DX003 (ip), vehicle: carboxymethylcellulose (CMC) 104 % of control

COc1cccc(/C=N/Nc2nnc(N/N=C/c3cccc(OC)c3OC)c3ccccc23)c1OC
inactive: [1] 92 % of control | [2] 92 % of control | [3] 92 % of control | [4] 94 % of control

C[N+](C)(C)c1ncnc2[n-]cnc12
inactive: dose: 50.0 mg/kg/injection, schedule: Q01DX015 (ip), vehicle: saline 110 % of control

CCN(CC)c1ccc(N=Nc2cc(Cl)ccc2Cl)c(NC(=O)CSC(C)=O)c1
inactive: [5] 110 % of control | [6] 101 % of control | [7] 97 % of control
